Test results published in PubChem BioAssay (NCI).
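Results reflect a 48-hour exposure of cells in 96-well plates to compound at five concentrations. GI50 marks 50% less growth. TGI marks complete inhibition of growth.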

Legend:
Test in all cases: NCI anticancer screen, dose series, 48 h
[1] = test system: EKVX NSCLC
[2] = test system: PC-3 prostate
[3] = test system: OVCAR-3 ovarian
[4] = test system: NCI/ADR-RES ovarian
[5] = test system: SW-620 colon
[6] = test system: HCC-2998 colon
[7] = test system: T-47D breast
[8] = test system: CAKI-1 renal
[9] = test system: A549 NSCLC
[10] = test system: SK-MEL-5 melanoma
[11] = test system: OVCAR-8 ovarian
[12] = test system: HS 578T breast
[13] = test system: UO-31 renal
[14] = test system: COLO 205 colon
[15] = test system: SNB-75 CNS
[16] = test system: SK-OV-3 ovarian
[17] = test system: M14 melanoma
[18] = test system: UACC-62 melanoma
[19] = test system: IGROV1 ovarian
[20] = test system: SF-268 CNS
[21] = test system: MALME-3M melanoma
[22] = test system: SNB-19 CNS
[23] = test system: NCI-H23 lung
[24] = test system: OVCAR-4 ovarian
[25] = test system: ACHN renal
[26] = test system: SF-539 CNS
[27] = test system: U251 CNS
[28] = test system: CCRF-CEM leukemia
[29] = test system: 786-0 renal
[30] = test system: UACC-257 melanoma
[31] = test system: RPMI-8226 leukemia
[32] = test system: A498 renal
[33] = test system: SF-295 CNS
[34] = test system: OVCAR-5 ovarian
[35] = test system: HOP-62 NSCLC
[36] = test system: SN12C renal
[37] = test system: SK-MEL-2 melanoma
[38] = test system: NCI-H522 lung
[39] = test system: KM12 colon
[40] = test system: K-562 leukemia
[41] = test system: NCI-H460 lung
[42] = test system: DU-145 prostate
[43] = test system: MDA-MB-435
[44] = test system: RXF 393 renal
[45] = test system: MCF7 breast
[46] = test system: HOP-92 NSCLC
[47] = test system: HL-60(TB) leukemia
[48] = test system: SR leukemia
[49] = test system: HCT-15 colon
[50] = test system: NCI-H226 lung
[51] = test system: HT29 colon
[52] = test system: SK-MEL-28 melanoma
[53] = test system: BT-549 breast
[54] = test system: HCT-116 colon
[55] = test system: TK-10 renal
[56] = test system: MOLT-4 leukemia
[57] = test system: MDA-MB-231 breast
[58] = test system: LOX IMVI melanoma

CC(C)=CC(=O)OCC(=O)O[C@@H]1C[C@]2(C(C)C)O[C@@]1(C)[C@@H]1CC[C@@H](C)[C@H]1[C@@H]2OC(=O)/C=C/c1ccccc1
GI50 [1]: > 51 µM | TGI [1]: > 100 µM | GI50 [2]: 6.01 µM | TGI [2]: > 100 µM | GI50 [3]: > 42.3 µM | TGI [3]: > 100 µM | GI50 [4]: 2.25 µM | TGI [4]: > 85.5 µM | GI50 [5]: > 60.4 µM | TGI [5]: > 100 µM | GI50 [6]: > 57.2 µM | TGI [6]: > 100 µM | GI50 [7]: 18.9 µM | TGI [7]: > 100 µM | GI50 [8]: 0.346 µM | GI50 [9]: > 57.2 µM | TGI [9]: > 100 µM | GI50 [10]: 49.2 µM | TGI [10]: > 66.1 µM | GI50 [11]: 0.912 µM | TGI [11]: > 72.9 µM | GI50 [12]: 0.064 µM | TGI [12]: 0.548 µM | GI50 [13]: 0.239 µM | TGI [13]: 2.36 µM | GI50 [14]: > 48.5 µM | TGI [14]: > 65.3 µM | GI50 [15]: 34.2 µM | TGI [15]: > 87.5 µM | GI50 [16]: > 55.7 µM | TGI [16]: > 100 µM | GI50 [17]: > 57.8 µM | TGI [17]: > 100 µM | GI50 [18]: 24.4 µM | TGI [18]: > 100 µM | GI50 [19]: > 61.8 µM | TGI [19]: > 100 µM | GI50 [20]: > 38.1 µM | TGI [20]: > 100 µM | GI50 [21]: > 55.5 µM | TGI [21]: > 100 µM | GI50 [22]: > 58.5 µM | TGI [22]: > 100 µM | GI50 [23]: > 50.4 µM | TGI [23]: > 96.4 µM | GI50 [24]: 30.2 µM | TGI [24]: > 100 µM | GI50 [25]: 0.3 µM | TGI [25]: > 19.6 µM | GI50 [26]: > 72.7 µM | TGI [26]: > 100 µM | GI50 [27]: > 56.4 µM | TGI [27]: > 100 µM | GI50 [28]: 29.6 µM | TGI [28]: > 100 µM | GI50 [29]: 7.21 µM | TGI [29]: > 100 µM | GI50 [30]: > 47.5 µM | TGI [30]: > 94.3 µM | GI50 [31]: 7.89 µM | TGI [31]: > 100 µM | GI50 [32]: 0.179 µM | TGI [32]: 0.679 µM | GI50 [33]: > 48.3 µM | TGI [33]: > 100 µM | GI50 [34]: > 62.7 µM | TGI [34]: > 100 µM | GI50 [35]: > 62.3 µM | TGI [35]: > 100 µM | GI50 [36]: 5.9 µM | TGI [36]: > 93.2 µM | GI50 [37]: > 56.4 µM | TGI [37]: > 85.9 µM | GI50 [38]: > 62.1 µM | TGI [38]: > 100 µM | GI50 [39]: > 56 µM | TGI [39]: > 100 µM | GI50 [40]: 7.75 µM | TGI [40]: > 100 µM | GI50 [41]: > 63 µM | TGI [41]: > 100 µM | GI50 [42]: > 69.2 µM | TGI [42]: > 100 µM | GI50 [43]: > 67.9 µM | TGI [43]: > 100 µM | GI50 [44]: 0.382 µM | TGI [44]: 11.7 µM | GI50 [45]: 35.3 µM | TGI [45]: > 100 µM | GI50 [46]: 5.18 µM | TGI [46]: > 75.4 µM | GI50 [47]: 11.6 µM | TGI [47]: > 69.4 µM | GI50 [48]: 11.1 µM | TGI [48]: > 100 µM | GI50 [49]: 42.1 µM | TGI [49]: > 100 µM | GI50 [50]: 9.47 µM | TGI [50]: > 94.1 µM | GI50 [51]: > 56.4 µM | TGI [51]: > 100 µM | GI50 [52]: > 63.3 µM | TGI [52]: > 100 µM | GI50 [53]: 2.11 µM | TGI [53]: > 73.2 µM | GI50 [54]: 11 µM | TGI [54]: > 100 µM | GI50 [55]: > 70.4 µM | TGI [55]: > 100 µM | GI50 [56]: 43.4 µM | TGI [56]: > 100 µM | GI50 [57]: > 51.7 µM | TGI [57]: > 85.2 µM | GI50 [58]: 33.4 µM | TGI [58]: > 70.5 µM
